In test [1] the test system is Botrytis cinerea. Nature of the test: Antifungal activity against Botrytis cinerea Pers. Type of test: functional, organism-based.
Test [2] relates to Sclerotinia sclerotiorum. Nature of the test: Antifungal activity against Sclerotinia sclerotiorum. Type of test: functional, organism-based.
Test [3] deals with HL-60. Put plainly: Antitumor activity against human HL60 cells at 100 ug/mL by MTT method. Type of test: functional. For orientation: Tetrazolium dyes change colour on reduction, which living cells bring about.
The subject of test [4] is BGC-823. Put plainly: Antitumor activity against human BGC823 cells at 100 ug/mL by SRB method. Type of test: functional. (In SRB staining, fixed cells bind dye roughly in proportion to their protein.)
The subject of test [5] is Bel-7402. Nature of the test: Antitumor activity against human Bel7402 cells at 100 ug/mL by SRB method. Format: functional.
Test [6] deals with KB. Put plainly: Antitumor activity against human KB cells at 100 ug/mL by SRB method. Format: functional.

Converted amounts (≈) assume the structure as drawn.

As a reminder, the EC50 is the concentration needed to bring the measured effect to its halfway point. A higher EC50 goes with weaker potency. The term inhibition denotes the change of the read-out against control, counted positive when it falls.

With `O=C1CCCCC1S(=O)(=O)Nc1ccccc1Cl` (centres undefined), the EC50 in test [1] came out at 35.2 mg/L (≈ 122 µM); in test [2], 69.4 mg/L (≈ 241 µM). Further, the inhibition at 100 µg/mL in test [3] is 0.29%; in test [4], 29.2%; in test [5], 1.98%; in test [6], -10.1%.
Take `O=C1CCCCC1S(=O)(=O)Nc1ccc(Cl)cc1` (centres undefined): the figures for the concentration giving a half-maximal response (EC50) in test [1] and in test [2] were 17 mg/L (≈ 59 µM) and 53.4 mg/L (≈ 186 µM), respectively. The inhibition at 100 µg/mL in test [3] was -13%; in test [4] it was 16%; in test [5], 4.47%; in test [6] it was -3.83%.
Turning to `O=C1CCCCC1S(=O)(=O)Nc1ccc(Cl)c(Cl)c1` (centres undefined), the half-maximal effective concentration (EC50) in test [1] is 7.23 mg/L (≈ 22.4 µM); in test [2], 24.2 mg/L (≈ 75.2 µM). The inhibition at 100 µg/mL in test [3] is 13.5%; in test [4], 5.54%; in test [5] it was 1.39%; in test [6] it was 17.8%.
Take `Cc1cc(F)ccc1NS(=O)(=O)C1CCCCC1=O` (centres undefined): the half-maximal effective concentration (EC50) was 37.7 mg/L (≈ 132 µM) in test [1] and 137 mg/L (≈ 480 µM) in test [2]. The inhibition at 100 µg/mL was -0.99% in test [3], 28.7% in test [4], 3.22% in test [5] and -3.72% in test [6].
As to `O=C1CCCCC1S(=O)(=O)Nc1ccc(Cl)cc1C(F)(F)F` (centres undefined), the figures for the EC50 in test [1] and in test [2] were 2.12 mg/L (≈ 5.96 µM) and 47.5 mg/L (≈ 134 µM), respectively. The inhibition at 100 µg/mL in test [3] is 78.6%; in test [4], 36.4%; in test [5] it was 20.9%; in test [6], 11.2%.
As to `Cc1ccc(NS(=O)(=O)C2CCCCC2=O)c(C)c1` (centres undefined), the concentration for a half-maximal effect (EC50) is 17 mg/L (≈ 60.3 µM) in test [1] and 112 mg/L (≈ 397 µM) in test [2]. Also, the inhibition at 100 µg/mL in test [3] is 12.2%; in test [4] it was 15.6%; in test [5], 0.52%; in test [6] it was 7.97%.
For the compound `O=C1CCCCC1S(=O)(=O)Nc1cc(C(F)(F)F)cc(C(F)(F)F)c1` (centres undefined), the EC50 in test [1] stood at 3.96 mg/L (≈ 10.2 µM); in test [2] it was 24.1 mg/L (≈ 62 µM). Moreover, the inhibition at 100 µg/mL in test [3] turned out to be 95.9%; in test [4], 70.8%; in test [5] it was 66.9%; in test [6] it was 76%.
With `O=C1CCCCC1S(=O)(=O)N1CCOCC1` (centres undefined), the half-maximal effective concentration (EC50) in test [1] was found to be 85.2 mg/L (≈ 345 µM); in test [2], 331 mg/L (≈ 1340 µM). For the same compound, the inhibition at 100 µg/mL in test [3] was 11%; in test [4] it was 21.3%; in test [5], 6.01%; in test [6] it was -4.35%.
In the case of `O=C1CCCCC1S(=O)(=O)Nc1ccccc1Br` (centres undefined), the values for the EC50 in test [1] and in test [2] were 50.6 mg/L (≈ 152 µM) and 47.8 mg/L (≈ 144 µM), respectively. The inhibition at 100 µg/mL in test [3] is 15.3%; in test [4], 29.6%; in test [5] it was 22.1%; in test [6], -14.4%.
As for `O=C1CCCCC1S(=O)(=O)Nc1cccc(C(F)(F)F)c1` (centres undefined), the concentration giving a half-maximal response (EC50) in test [1] stood at 85.2 mg/L (≈ 265 µM); in test [2] it was 144 mg/L (≈ 448 µM). Moreover, the inhibition at 100 µg/mL is 17% in test [3], 21.6% in test [4], 11.4% in test [5] and -6.3% in test [6].
Regarding `Cc1cccc(NS(=O)(=O)C2CCCCC2=O)c1C` (centres undefined), the EC50 in test [1] was determined as 24.2 mg/L (≈ 86 µM); in test [2], 59.3 mg/L (≈ 211 µM). Besides, the inhibition at 100 µg/mL was 9.38% in test [3], 24.5% in test [4], 21.8% in test [5] and -20.6% in test [6].
For `COc1cc(OC)nc(NS(=O)(=O)C2CCCCC2=O)n1` (centres undefined), the concentration giving a half-maximal response (EC50) in test [1] came to 28.6 mg/L (≈ 90.8 µM); in test [2], 197 mg/L (≈ 626 µM). Further, the inhibition at 100 µg/mL in test [3] came out at 2.62%; in test [4], 26.4%; in test [5] it was 39.3%; in test [6], 2.73%.
In the case of `O=C1CCCCCC1S(=O)(=O)Nc1ccc(Cl)c(Cl)c1` (centres undefined), the concentration for a half-maximal effect (EC50) in test [1] came to 2.38 mg/L (≈ 7.08 µM); in test [2], 16.4 mg/L (≈ 48.7 µM). Besides, the inhibition at 100 µg/mL in test [3] is 15%; in test [4], 28.9%; in test [5], 4.03%; in test [6], -6.3%.
For `Cc1cccc(NS(=O)(=O)C2CCCCCC2=O)c1C` (centres undefined), the figures for the EC50 in test [1] and in test [2] were 11.6 mg/L (≈ 39.3 µM) and 47.6 mg/L (≈ 161 µM), respectively. The inhibition at 100 µg/mL in test [3] turned out to be 22.9%; in test [4], 23.8%; in test [5], 12.1%; in test [6], 2.01%.
For `O=C1CCCCCC1S(=O)(=O)Nc1cc(C(F)(F)F)cc(C(F)(F)F)c1` (centres undefined), the results for the EC50 in test [1] and in test [2] were 2.43 mg/L (≈ 6.02 µM) and 8.05 mg/L (≈ 20 µM), respectively. The inhibition at 100 µg/mL in test [3] was found to be 95.8%; in test [4], 57%; in test [5], 45.3%; in test [6] it was 59%.
Take `Cc1ccc(NS(=O)(=O)C2CCCCC2=O)cc1` (centres undefined): the 50% effective concentration (EC50) was determined as 21.2 mg/L (≈ 79.4 µM) in test [1] and 116 mg/L (≈ 434 µM) in test [2]. For the same compound, the inhibition at 100 µg/mL is -3.55% in test [3], 32% in test [4], 27.5% in test [5] and -22.2% in test [6].
For `O=C1CCCCC1S(=O)(=O)Nc1cc(C(F)(F)F)ccc1C(F)(F)F` (centres undefined), the concentration giving a half-maximal response (EC50) in test [1] is 3.66 mg/L (≈ 9.4 µM); in test [2] it was 70.5 mg/L (≈ 181 µM). In addition, the inhibition at 100 µg/mL in test [3] is 95.7%; in test [4] it was 57.7%; in test [5], 68.3%; in test [6] it was 68.6%.
`N#Cc1c(Cl)c(Cl)c(Cl)c(C#N)c1Cl` [CHLOROTHALONIL] came in with an EC50 in test [2] of 7.16 mg/L (≈ 26.9 µM).
Turning to `CC12CC1(C)C(=O)N(c1cc(Cl)cc(Cl)c1)C2=O` (centres undefined) [PROCYMIDONE], a half-maximal response in test [1] (EC50) required 2.45 mg/L (≈ 8.62 µM).

These data come from ChEMBL document CHEMBL1149877, “Synthesis and biological activities of 2-oxocycloalkylsulfonamides” (Bioorg Med Chem, 2008).
